Source: patent US12404265B2, “Substituted pyridine derivatives as SARM1 inhibitors” (Nura Bio, Inc., priority 2020, dated 2025)

Each molecule was assayed against T1, human SARM1(50-724) (Homo sapiens, UniProt Q6SZW1) (assay: SARM1 NADase biochemical assay (HPLC of NAD and NAM)). Conditions: 40 nM human SARM1(50-724), 0.3 mM NMN, 20 μM NAD, 60 minutes room temperature; dose-response from 100 μM, 1:3 dilution.
T1 construct: 40 nM human SARM1(50-724)
T1 sequence (Q6SZW1 50-724): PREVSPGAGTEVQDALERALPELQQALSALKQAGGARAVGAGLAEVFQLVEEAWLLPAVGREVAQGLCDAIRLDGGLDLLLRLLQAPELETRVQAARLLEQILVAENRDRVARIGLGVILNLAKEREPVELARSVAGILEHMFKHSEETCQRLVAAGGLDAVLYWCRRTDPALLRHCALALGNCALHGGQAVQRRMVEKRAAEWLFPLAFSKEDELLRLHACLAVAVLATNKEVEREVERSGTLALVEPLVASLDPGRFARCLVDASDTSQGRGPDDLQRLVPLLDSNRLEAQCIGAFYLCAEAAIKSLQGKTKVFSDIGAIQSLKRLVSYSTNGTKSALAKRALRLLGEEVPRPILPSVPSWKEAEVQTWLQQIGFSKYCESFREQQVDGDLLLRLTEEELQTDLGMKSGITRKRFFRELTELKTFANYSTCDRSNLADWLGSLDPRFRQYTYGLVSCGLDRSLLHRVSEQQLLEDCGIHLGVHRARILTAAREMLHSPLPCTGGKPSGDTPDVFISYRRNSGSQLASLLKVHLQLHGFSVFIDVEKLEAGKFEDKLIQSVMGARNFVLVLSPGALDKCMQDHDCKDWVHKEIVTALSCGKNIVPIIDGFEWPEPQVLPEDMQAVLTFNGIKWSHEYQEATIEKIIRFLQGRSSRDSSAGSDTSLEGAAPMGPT
Method in brief: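 Human SARM1(50-724) at 40 nM with 0.3 mM NMN, 20 μM NAD, 1 mM TCEP in 25 mM HEPES pH 7.4, 10 mM KCl, 10 mM MgCl2, 1% DMSO; 60 min at room temperature, formic acid quench. NAD and NAM quantified by reverse-phase HPLC peak area; single point 50 μM or 1:3 series from 100 μM.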
With `Cc1c(-c2ccncc2)n[nH]c1N1CCC(c2ccc(Cl)cc2)CC1=O` (centres unmarked) [Example 138, 4-(4-Chlorophenyl)-1-(4-methyl-3-(pyridin-4-yl)-1H-pyrazol-5-yl)piperidin-2-one] the IC50 was < 1 µM.
`Cc1c(-c2ccncc2)n[nH]c1NC(=O)COc1ccc(Cl)cc1` [Example 62, 2-(4-Chlorophenoxy)-N-(4-methyl-3-(pyridin-4-yl)-1H-pyrazol-5-yl)acetamide] was tested, and the IC50 was < 1 µM.
With `Cn1c(-c2ccncc2)cnc1NC(=O)CCc1ccc(Cl)cc1` [Example 132] the IC50 was 1 to 10 µM.
For `Cc1c(-c2ccncc2)n[nH]c1NC(=S)CCc1ccc(Cl)cc1` [Example 124, 3-(4-Chlorophenyl)-N-[4-methyl-3-(pyridin-4-yl)-1H-pyrazol-5-yl]propanethioamide], the IC50 was < 1 µM.
In the case of `Cc1c(NC(=O)OCc2ccc(Cl)cc2)cnn1-c1ccncc1` [Example 136, 4-Chlorobenzyl (5-methyl-1-(pyridin-4-yl)-1H-pyrazol-4-yl)carbamate], the IC50 is reported as < 1 µM.
In the case of `Cc1c(-c2ccncc2)n[nH]c1NC(=O)CS(=O)(=O)c1ccc(Cl)cc1` [Example 121, 2-((4-chlorophenyl)sulfonyl)-N-(4-methyl-3-(pyridin-4-yl)-1H-pyrazol-5-yl)acetamide], the IC50 is reported as < 1 µM.
Molecule `Cc1ccccc1CCC(=O)Nc1[nH]nc(-c2ccncc2)c1C` [Example 26, N-(4-Methyl-3-(pyridin-4-yl)-1H-pyrazol-5-yl)-3-(o-tolyl)propanamide] has an IC50 of 1 to 10 µM.
`Cc1c(-c2ccncc2)n[nH]c1N(C(=O)CCc1ccc(Cl)cc1)S(C)(=O)=O` [Example 11, 3-(4-Chlorophenyl)-N-(4-methyl-3-(pyridin-4-yl)-1H-pyrazol-5-yl)-N-(methylsulfonyl)propanamide] was tested, and the IC50 was < 1 µM.
For `O=C(CCc1cc(F)c(F)c(F)c1)Nc1[nH]nc(-c2ccncc2)c1CO` [Example 119], the IC50 was < 1 µM.
For `O=C(CCc1ccc(Cl)cc1)Nc1cnn(-c2ccncc2)c1Cl` [Example 90], the IC50 was < 1 µM.
With `Cc1c(-c2ccncc2)n[nH]c1N(C(=O)CCc1ccc(Cl)cc1)C(=O)CCC1CCCC1` [Example 8, 3-(4-Chlorophenyl)-N-(3-cyclopentylpropanoyl)-N-(4-methyl-3-(pyridin-4-yl)-1H-pyrazol-5-yl)propanamide] the IC50 was < 1 µM.
In the case of `Cc1c(-c2ccncc2)n[nH]c1NC(=O)OCc1ccc(Cl)cc1` [Example 130, 4-Chlorobenzyl (4-methyl-3-(pyridin-4-yl)-1H-pyrazol-5-yl)carbamate], the IC50 is reported as < 1 µM.
`Cc1c(-c2ccncc2)n[nH]c1N(C(=O)CCc1ccc(Cl)cc1)C(=O)CCc1ccc(Cl)cc1` [Example 3, 3-(4-Chlorophenyl)-N-(3-(4-chlorophenyl)propanoyl)-N-(4-methyl-3-(pyridin-4-yl)-1H-pyrazol-5-yl)propanamide] was tested, and the IC50 was < 1 µM.
For `N#Cc1ccc(CCC(=O)Nc2[nH]nc(-c3ccncc3)c2Cl)cc1F` [Example 129], the IC50 was < 1 µM.
With `O=C(CCc1cc(F)c(Cl)c(F)c1)Nc1cc(-c2ccncc2)n[nH]1` [Example 101, 3-(4-Chloro-3,5-difluorophenyl)-N-(3-(pyridin-4-yl)-1H-pyrazol-5-yl)propanamide] the IC50 was < 1 µM.
`O=C(CCc1ccc(F)cc1)Nc1cnn(-c2ccncc2)c1` [Example 115] was tested, and the IC50 was 1 to 10 µM.
`Cc1c(NC(=S)CCc2ccc(Cl)cc2)cnn1-c1ccncc1` [Example 137, 3-(4-Chlorophenyl)-N-(5-methyl-1-(pyridin-4-yl)-1H-pyrazol-4-yl)propanethioamide] was tested, and the IC50 was 1 to 10 µM.
With `N#Cc1c(F)cc(CCC(=O)Nc2cnn(-c3ccncc3)c2Cl)cc1F` [Example 93, N-(5-Chloro-1-(pyridin-4-yl)-1H-pyrazol-4-yl)-3-(4-cyano-3,5-difluorophenyl)propanamide] the IC50 was < 1 µM.
With `Cc1c(-c2ccncc2)n[nH]c1NC(=O)CCc1cccc2ccccc12` [Example 29, N-(4-Methyl-3-(pyridin-4-yl)-1H-pyrazol-5-yl)-3-(naphthalen-1-yl)propanamide] the IC50 was 1 to 10 µM.
`Cc1c(-c2ccncc2)n[nH]c1NC(=O)CCc1ccc(Cl)c(F)c1` [Example 64, 3-(4-Chloro-3-fluorophenyl)-N-(4-methyl-3-(pyridin-4-yl)-1H-pyrazol-5-yl)propanamide] was tested, and the IC50 was < 1 µM.
With `Cc1c(-c2ccncc2)n[nH]c1NC(=O)CCc1cnc(Cl)s1` [Example 75, 3-(2-Chlorothiazol-5-yl)-N-(4-methyl-3-(pyridin-4-yl)-1H-pyrazol-5-yl)propanamide] the IC50 was < 1 µM.
For `Cc1c(-c2ccncc2)n[nH]c1NC(=O)CCc1ccc(F)cc1` [Example 33, 3-(4-Fluorophenyl)-N-(4-methyl-3-(pyridin-4-yl)-1H-pyrazol-5-yl)propanamide], the IC50 was < 1 µM.
In the case of `Cc1c(-c2ccncc2)n[nH]c1NC(=O)CCc1ccc(F)nc1` [Example 59, 3-(6-Fluoropyridin-3-yl)-N-(4-methyl-3-(pyridin-4-yl)-1H-pyrazol-5-yl)propanamide], the IC50 is reported as < 1 µM.
With `Cc1c(-c2ccncc2)n[nH]c1NC(=O)CCc1cc(F)c(F)cc1F` [Example 52, N-(4-Methyl-3-(pyridin-4-yl)-1H-pyrazol-5-yl)-3-(2,4,5-trifluorophenyl)propanamide] the IC50 was < 1 µM.
`Cc1c(-c2ccncc2)n[nH]c1NC(=O)N(C)Cc1ccc(Cl)cc1` [Example 131, 1-(4-Chlorobenzyl)-1-methyl-3-(4-methyl-3-(pyridin-4-yl)-1H-pyrazol-5-yl)urea] was tested, and the IC50 was 1 to 10 µM.
With `O=C(CCc1cc(F)c(Cl)c(F)c1)Nc1[nH]nc(-c2ccncc2)c1CO` [Example 117, 3-(4-Chloro-3,5-difluorophenyl)-N-(4-(hydroxymethyl)-3-(pyridin-4-yl)-1H-pyrazol-5-yl)propanamide] the IC50 was < 1 µM.
With `Cc1c(-c2ccncc2)n[nH]c1NC(=O)CCc1cccc(Cl)c1` [Example 30, 3-(3-Chlorophenyl)-N-(4-methyl-3-(pyridin-4-yl)-1H-pyrazol-5-yl)propanamide] the IC50 was < 1 µM.
In the case of `N#Cc1c(F)cc(CCC(=O)Nc2cc(-c3ccncc3)n[nH]2)cc1F` [Example 104, 3-(4-Cyano-3,5-difluorophenyl)-N-(3-(pyridin-4-yl)-1H-pyrazol-5-yl)propanamide], the IC50 is reported as < 1 µM.
`Cc1cnccc1-c1n[nH]c(NC(=O)CCc2cc(F)c(C#N)c(F)c2)c1C` [Example 113] gave an IC50 of 1 to 10 µM.
In the case of `Cc1c(-c2ccncc2)n[nH]c1NC(=O)CCc1cc(F)c(Cl)c(F)c1` [Example 48, 3-(4-Chloro-3,5-difluorophenyl)-N-(4-methyl-3-(pyridin-4-yl)-1H-pyrazol-5-yl)propanamide], the IC50 is reported as < 1 µM.
With `O=C1CC(Cc2ccc(Cl)cc2)C(=O)N1c1cc(-c2ccncc2)n[nH]1` (racemic) [Example 156, (rac)-3-(4-Chlorobenzyl)-1-(3-(pyridin-4-yl)-1H-pyrazol-5-yl)pyrrolidine-2,5-dione] the IC50 was < 1 µM.
For `N#Cc1ccc(CCC(=O)Nc2cc(-c3ccncc3)n[nH]2)cc1F` [Example 103], the IC50 was < 1 µM.
`Cc1c(-c2ccncc2)n[nH]c1NC(=O)NCc1ccc(Cl)nc1` [Example 143, 1-[(6-Chloropyridin-3-yl)methyl]-3-[4-methyl-3-(pyridin-4-yl)-1H-pyrazol-5-yl]urea] was tested, and the IC50 was < 1 µM.
`Cn1c(NC(=O)CCc2ccc(Cl)cc2)cnc1-c1ccncc1` [Example 105, 3-(4-Chlorophenyl)-N-(1-methyl-2-(pyridin-4-yl)-1H-imidazol-5-yl)propanamide] was tested, and the IC50 was < 1 µM.
For `O=C(CCc1ccc(Cl)cc1)Nc1cc(-c2ccncc2)n[nH]1` [Example 98, 3-(4-Chlorophenyl)-N-(3-(pyridin-4-yl)-1H-pyrazol-5-yl)propanamide], the IC50 was < 1 µM.
`Cc1c(-c2ccncc2)n[nH]c1N(C(=O)CCc1ccc(Cl)cc1)C(=O)C(C)C` [Example 12, 3-(4-Chlorophenyl)-N-isobutyryl-N-(4-methyl-3-(pyridin-4-yl)-1H-pyrazol-5-yl)propanamide] was tested, and the IC50 was 1 to 10 µM.
`O=C(NCc1cc(F)c(F)c(F)c1)Nc1cc(-c2ccncc2)n[nH]1` [Example 164, 1-(3-(Pyridin-4-yl)-1H-pyrazol-5-yl)-3-(3,4,5-trifluorobenzyl)urea] was tested, and the IC50 was < 1 µM.
`N[C@@H](Cc1ccc(Cl)cc1)C(=O)Nc1cc(-c2ccncc2)n[nH]1` [Example 153, (S)-2-Amino-3-(4-chlorophenyl)-N-(3-(pyridin-4-yl)-1H-pyrazol-5-yl)propanamide] was tested, and the IC50 was < 1 µM.
Work on `Cc1nn(-c2ccncc2)cc1NC(=O)CCc1ccc(Cl)cc1` [Example 107] yielded an IC50 of 1 to 10 µM.
`Cc1c(NC(=O)NCc2ccc(Cl)cc2)cnn1-c1ccncc1` [Example 144, 1-(4-Chlorobenzyl)-3-(5-methyl-1-(pyridin-4-yl)-1H-pyrazol-4-yl)urea] was tested, and the IC50 was < 1 µM.
In the case of `Cc1c(-c2ccncc2)n[nH]c1NC(=O)CCc1ccc(C(F)F)cc1` [Example 57, 3-(4-(Difluoromethyl)phenyl)-N-(4-methyl-3-(pyridin-4-yl)-1H-pyrazol-5-yl)propanamide], the IC50 is reported as < 1 µM.
